US9504669B2, “Spliceostatin analogs and methods for their preparation” (PFIZER INC., priority 2012, dated 2016)

Key:
[1] = tested on: spliceosome (SF3b, component of the subcomplex U2 snRNA); conditions: Nature Chemical Biology (2007), 3(9), 576-583; Nature (2010), 468(7324), 664-668; cited from earlier work
[2] = tested on: xenograft tumor models; conditions: Journal of Antibiotics (1996), 49(12), 1204-1211; cited from earlier work
[3] = tested on: human cancer cell lines; conditions: Journal of Antibiotics (1996), 49(12), 1204-1211; cited from earlier work
[4] = tested on: N87 (gastric cancer) cells; experiment: In vitro cell assay (MTS cell viability), N87; type: cell-based; conditions: 96 h, free compounds (natural products and synthetic analogs); cell viability 96 hours after treatment
In short: (§1)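 Cells seeded 24 h, then treated with antibody-drug conjugates or free drug, 3-fold serial dilutions at 10 concentrations in duplicate. Viability by MTS at 96 h as percent of untreated control; IC50 from four-parameter logistic fit.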

[5] = tested on: BT474 (breast cancer) cells; experiment: In vitro cell assay (MTS cell viability), BT474; type: cell-based; conditions: Homo sapiens, BT-474; free compounds (natural products and synthetic analogs); cell viability 96 hours after treatment
In short: as §1

[6] = tested on: MDA-MB-468 cells (target non-expressing); experiment: In vitro cell assay (MTS cell viability), MDA-MB-468; type: cell-based; conditions: Homo sapiens, MDA-MB-468, 96 h, read-out: MDA-MB-468 IC50 (nM)
Method: Target expressing (BT474 (breast cancer), N87 (gastric cancer), HCC1954 (breast cancer), MDA-MB-361-DYT2 (breast cancer)) or non-expressing (MDA-MB-468) cells were seeded in 96-well cell culture plates for 24 hours before treatment. Cells were treated with 3-fold serially diluted antibody-drug conjugates or free compounds (i.e., no antibody conjugated to the drug) in duplicate at 10 concentrations. Cell viability was determined by CellTiter 96® AQueous One Solution Cell Proliferation MTS Assay (Promega, Madison Wis.) 96 hours after treatment. Relative cell viability was determined as percentage of untreated control. IC50 values were calculated using a four parameter logistic model #203 with XLfit v4.2 (IDBS, Guildford, Surry, UK). The potency ranged upward from 0.0002 nm. Similar procedures and techniques were employed.

[7] = tested on: MDA-MB-361-DYT2 (breast cancer) cells; experiment: In vitro cell assay (MTS cell viability), MDA-MB-361-DYT2; type: cell-based; conditions: 96 h, free compounds (natural products and synthetic analogs); cell viability 96 hours after treatment
In short: as §1

Molecule | inhibition of the spliceosome [1] | efficacies in xenograft tumor models [2] | inhibitory activities against human cancer cell lines [3] | IC50 [4] [nM] | IC50 [5] [nM] | IC50 [6] [nM] | IC50 [7] [nM]
CO[C@]1(C)C[C@@]2(CO2)[C@H](O)[C@@H](/C=C/C(C)=C/C[C@@H]2O[C@H](C)[C@H](NC(=O)/C=C\[C@H](C)OC(C)=O)C[C@@H]2C)O1 [spliceostatin A] | inhibit the spliceosome by interaction with SF3b | – | – | – | – | – | –
FR901465 | – | efficacies in several xenograft tumor models | potent inhibitory activities | – | – | – | –
CC(=O)O[C@@H](C)/C=C\C(=O)N[C@@H]1C[C@H](C)[C@H](C/C=C(C)/C=C/[C@H]2O[C@](C)(O)C[C@@](O)(CCl)[C@@H]2O)O[C@@H]1C [FR901463] | – | efficacies in several xenograft tumor models | potent inhibitory activities | – | – | – | –
CC(=O)O[C@@H](C)/C=C\C(=O)N[C@@H]1C[C@H](C)[C@H](C/C=C(C)/C=C/[C@H]2O[C@](C)(O)C[C@@]3(CO3)[C@@H]2O)O[C@@H]1C [FR901464] | inhibit the spliceosome by interaction with SF3b | efficacies in several xenograft tumor models | potent inhibitory activities | – | – | – | –
CC(=O)O[C@@H](C)/C=C\C(=O)N[C@@H]1C[C@H](C)[C@H](C/C=C(C)/C=C/[C@H]2O[C@H](CC(=O)NN)C[C@@]3(CO3)[C@@H]2O)O[C@@H]1C [#B6, (2S,3Z)-5-{[(2R,3R,5S,6S)-6-{(2E,4E)-5-[(3R,4R,5R,7S)-7-(2-hydrazinyl-2-oxoethyl)-4-hydroxy-1,6-dioxaspiro[2.5]oct-5-yl]-3-methylpenta-2,4-dien-1-yl}-2,5-dimethyltetrahydro-2H-pyran-3-yl]amino}-5-oxopent-3-en-2-yl acetate] | – | – | – | 5.66 | 16.5 | 7.97 | 25.4
CCCNC(=O)C(C)(C)NC(=O)C[C@@H]1C[C@@]2(CO2)[C@H](O)[C@@H](/C=C/C(C)=C/C[C@@H]2O[C@H](C)[C@H](NC(=O)/C=C\[C@H](C)OC(C)=O)C[C@@H]2C)O1 [#B81, (2S,3Z)-5-{[(2R,3R,5S,6S)-6-{(2E,4E)-5-[(3R,4R,5R,7S)-4-hydroxy-7-(2-{[2-methyl-1-oxo-1-(propylamino)propan-2-yl]amino}-2-oxoethyl)-1,6-dioxaspiro[2.5]oct-5-yl]-3-methylpenta-2,4-dien-1-yl}-2,5-dimethyltetrahydro-2H-pyran-3-yl]amino}-5-oxopent-3-en-2-yl acetate] | – | – | – | 70.7 | > 100 | > 100 | > 100
